Assays:
Assay type in all cases: cell-based, human
H9-naïve hESCs [1] = assay: Extended maintenance assay, flow cytometry for naïve-specific CD75 and SUSD2; settings: serum-free media supplemented with XGY, 2.5 μM compound
Experimental: (§1) Defining alternative naïve maintenance media: To define the activity of selected hit compounds during extended naïve culture, naïve hESCs derived from the primed state and maintained in 5i/L/A were dissociated with Accutase (Thermo Fischer Scientific, A1110501) and 1.5×10^5 single cells were seeded in 5i/L/A media on MEF-coated plates. After 24 hours, 5i/L/A media were switched to experimental maintenance conditions to validate hits from the screen. After 4-6 days the cells were split in a 1:2 or 1:3 ratio and further maintained for 4-6 days before analysis by FACS, qRT-PCR, AP staining, and/or RNA-seq. 5i/L/A media in which the MEK inhibitor PD0325901 was replaced with 5 μM AZ628 are represented as alternative 5i/L/A (a5i/L/A). FXGY, AXGY, AXGYU, PXGY, and GXGY media were prepared in serum-free N2B27 media supplemented with 1 μM PD166866, 5 μM AZ628, 5 μM AZ628 and 1 μM UNC0638, 1 μM PD0325901, and 5 μM GDC-0994, respectively, together with 2 μM XAV939, 2 μM Gö6983, and 10 μM Y-27632. During these assays cells were fed with fresh media every second day and cultured in 5% O2, 5% CO2 at 37° C. Detailed information on conditions used for defining alternative naïve maintenance media can be found in Tables 1-6.
Flow cytometry: Primed hESCs were single-cell dissociated using TrypLE Express, while Accutase was used for naïve hESCs. Cells were resuspended in fibroblast medium and centrifuged. Cell pellets were washed in 5 mL ice-cold PBS. The cells were then resuspended in […] fresh ice-cold FACS buffer (PBS supplemented with 5% FBS), and incubated with antibodies for 30 minutes on ice in the dark. The following antibodies were used: anti-SUSD2-PE (1:100), anti-CD75-eFluor 660 (1:100), anti-CD90-PE (1:100), anti-ITGA6-FITC (1:100) and EGFR-APC (1:25). Post-incubation the cells were washed once with 1 mL ice-cold PBS, resuspended in fresh 500 μl FACS buffer, and passed through a […] cell strainer into round bottom FACS tubes (Corning, #352235). Flow cytometry was performed using a BD LSRFortessa X-20 and the data were analyzed using the FlowJo software.

[2] = tested on: WIBR3 OCT4-ΔPE-GFP+-naïve hESCs; assay: Extended maintenance assay, OCT4-ΔPE-GFP reporter activity (imaging, qRT-PCR); settings: for activity in maintaining OCT4-ΔPE-GFP reporter activity after passaging: 2.5 and 5 μM, two passages
Experimental: as §1
(§2) Quantitative reverse transcriptase PCR (qRT-PCR): Total RNA was isolated using the E.Z.N.A. total RNA kit I and cDNA synthesis was performed from total RNA using the high-capacity cDNA reverse transcription kit (Applied Biosystems, 4368814). qRT-PCR was performed using PowerUp SYBR Green Master Mix (Applied Biosystems, A25743) on the StepOnePlus Real-Time PCR System (Applied Biosystems). Gene expression was normalized to RPLP0 and analyzed using the ΔCt method. Error bars represent the standard deviation (SD) of the mean of technical replicates.
For this purpose, WIBR3 OCT4-ΔPE-GFP+-naïve hESCs that were generated in the absence of reprogramming transgenes were used using the 5i/L/A cocktail. […] Compounds were tested at two different concentrations (2.5 and 5 μM), and cells were maintained for two passages (FIG. 2A).

H9 hESCs = assay: Primed-to-naïve reprogramming, colony morphology and colony numbers (imaging, AP staining); settings: for morphological appearance of naïve hESCs on individual addition to PXGGY/A: 20 ng/ml LIF, 0.5 μM IM12 or 0.5 μM WH-04, P2
Experimental: (§3) […]: For primed-to-naïve resetting experiments, primed hESCs were dissociated into single cells using TrypLE Express (GIBCO, 12604), washed in fibroblast medium [DMEM (Millipore Sigma, #SLM-021-B) supplemented with 10% FBS (HyClone, SH30396.03, 1×GlutaMAX (GIBCO, 35050), and 1% penicillin-streptomycin (GIBCO, 15140)] and 2×10^5 single primed hESCs were seeded on mitomycin C-inactivated mouse embryonic fibroblast (MEF) feeder cells coated 6 well plates in 3-4 mL mTeSR1 supplemented with 10 μM Y-27632. Two days later, medium was switched to either 5i/L/A or experimental induction media and maintained for 10-12 days. Cells at this stage were considered at passage zero. Cells were then split in a 1:2 or 1:3 ratio every 4-6 days as single cells using Accutase (Thermo Fischer Scientific, A1110501). PXGGY media were prepared in serum-free N2B27 media supplemented with 1 μM PD0325901, 2 μM XAV939, 2 μM Gö6938, 2.5 μM GDC-0994, and 10 μM Y-27632. PXGGY/A media were prepared in PXGGY supplemented with 10 ng/ml Activin A. During these assays cells were fed with fresh media every second day and cultured in 5% O2, 5% CO2 at 37° C. Detailed information on the conditions used for defining alternative naïve induction media can be found in Tables 1-6.
(§4) Alkaline phosphatase (AP) staining: AP staining was performed following the manufacturer's instructions using the Leukocyte Alkaline Phosphatase Kit (Sigma, 86R, 1KT). For AP staining cells were seeded at equal density in 6-well plates and passaged in the same ratio for all conditions. Post-staining cells were allowed to dry overnight in the dark and scanned using HP Color Laser Jet Managed printer/scanner (MFP E67650).
(§5) Imaging: The imaging of H9 and WIBR3 hESCs was performed in live conditions within culture media. For WIBR3 MECP2-GFP/tdTomato hESCs the medium was aspirated, cell were washed twice with PBS, and imaged in 1 mL of PBS. All images were captured at 10× magnification on a Leica DMi8 microscope.
Example 1 establishes the PXGGY/A cocktail enables efficient primed-to-naïve reprogramming, homogenous induction of naïve-specific cell surface markers CD75 and SUSD2, and homogenous X-chromosome reactivation. […] To address this, the impact of ROCK inhibitor Y-27632 titration was first assessed when used continuously or transiently for only 24 hours at the time of passaging during primed-to-naïve reprogramming (FIG. 9A and FIG. 9B). […] The PXGGY/A composition from hereon will be denoted as PXGGY/A to specify transient use of ROCKi.
However, the morphology of naïve hESCs reprogrammed using this condition still appeared flat compared to the characteristic dome-shaped colony morphology associated with naïve pluripotency. […]

naïve hESCs = assay: Colony morphology, proliferation and colony formation (phase contrast, AP staining) during naïve maintenance
Experimental: as §1, §4, §5

H9-naïve hESCs [3] = assay: qRT-PCR for naïve-specific transcripts (KLF17, DNMT3L) during naïve maintenance
Experimental: as §1, §2

H9 primed hESCs = assay: Primed-to-naïve resetting, flow cytometry for CD75 and SUSD2
Experimental: as §3, with “PXGGY/A media were prepared in PXGGY supplemented with 10 ng/ml Activin A. During these assays cells were fed with fresh media every second day and cultured in 5% O2, 5% CO2 at 37° C. Detailed information on the conditions used for defining alternative naïve induction media can be found in Tables 1-6.” left out
Flow cytometry: Primed hESCs were single-cell dissociated using TrypLE Express, while Accutase was used for naïve hESCs. […] Flow cytometry was performed using a BD LSRFortessa X-20 and the data were analyzed using the FlowJo software.

[4] = tested on: WIBR3 OCT4-ΔPE-GFP+naïve hESCs; assay: High-throughput chemical screening in absence of 2i, OCT4-ΔPE-GFP reporter, high-content imaging; settings: N2B27/Y
Experimental: High-throughput chemical screening: For high-throughput screening, WIBR3 OCT4-ΔPE-GFP+naïve hESCs generated with inducible KLF2 and NANOG transgenes were used, as described previously. These cells were maintained in 1 μM PD0325901, 1 µM CHIR99021, and 2 μg/ml DOX (Sigma) (2i/DOX). For compound screening in presence of 2i/Y, 3,000 OCT4-ΔPE-GFP+naïve hESCs were seeded per well in vitronectin-coated 384 well plates in serum-free N2B27 media supplemented with 1 μM PD0325901, 1 μM CHIR99021, and 10 μM Y-27632. The next day individual compounds from the Novartis Mechanism of Action (MoA) library were applied at two concentrations (2.5 μM and 5 μM) in duplicate using an Echo 550 Acoustic Liquid Handler (Labcyte), and compounds were refreshed on day 4. Images were analyzed on day 5 post-DOX withdrawal using a Yokogawa Cell Voyager 7000 High-Content Imaging System in confocal mode using a 10× dry (NA=0.45) objective lens using four fields per well that provided for full well coverage. While the screen was performed at two concentrations (2.5 μM and 5 μM), the lower concentration yielded few additional hits. Hit compounds were validated in 384 well plates across an 8-point concentration range in duplicates. […] Images were acquired using the Yokogawa Cell Voyager 7000 on day 7 and analyzed as described above. […]

Cc1ccc(NC(=O)c2cccc(C(C)(C)C#N)c2)cc1Nc1ccc2ncn(C)c(=O)c2c1 [AZ628]
sustaining CD75/SUSD2-positive cells over multiple passages (H9-naïve hESCs [1]): robustly sustained | activity in maintaining OCT4-ΔPE-GFP reporter activity after passaging ([2]; in Go/Y): showed activity | activity in maintaining OCT4-ΔPE-GFP reporter activity after passaging ([2]; in XAV/Y): showed activity | expansion of OCT4-ΔPE-GFP+ cells ([2]; in the presence of either XAV or Go): robust expansion

Cc1[nH]c2ccccc2c1C1=C(NCCc2ccc(F)cc2)C(=O)N(C)C1=O [IM12]
morphological appearance of naïve hESCs on individual addition to PXGGY/A (H9 hESCs): did not result in a major improvement

CC(C)(C)n1nc(-c2cccc3ccccc23)c2c(N)ncnc21 [Naphtol-PP1]
colony morphology upon addition to the AXGY cocktail (naïve hESCs; added to AXGY): enhanced dome-shaped colony morphology

COc1cc(OC)cc(-c2cc3cnc(N)nc3nc2NC(=O)NC(C)(C)C)c1 [PD166866]
concentration effective to maintain expression of naïve-specific transcripts (titration) (H9-naïve hESCs [3]; in XAV/Gö/Y, KLF17 and DNMT3L): 1 µM | sustaining CD75/SUSD2-positive cells over multiple passages (H9-naïve hESCs [1]): robustly sustained | activity in maintaining OCT4-ΔPE-GFP reporter activity after passaging ([2]; in the presence of ROCK inhibitor (Y) alone): showed activity | induction of CD75/SUSD2 double-positive cells in primed hESCs (H9 primed hESCs; in the presence of XGY and activin A, end of P1): heterogeneous induction

C/C(=N\NC(=N)N)c1cc(NC(=O)CCCCCCCCC(=O)Nc2cc(/C(C)=N/NC(=N)N)cc(/C(C)=N/NC(=N)N)c2)cc(/C(C)=N/NC(=N)N)c1 [Semapimod]
sustaining CD75/SUSD2-positive cells over multiple passages (H9-naïve hESCs [1]): some double-positive cells | proliferation of double-positive cells (naïve hESCs; serum-free media supplemented with XGY): very limited proliferation

COc1cc2c(NC3CCN(C(C)C)CC3)nc(C3CCCCC3)nc2cc1OCCCN1CCCC1 [UNC0638]
KLF17 expression upon addition to the AXGY cocktail (H9-naïve hESCs [3]; added to AXGY): further stimulated | colony proliferation compared to AXGY (naïve hESCs; added to AXGY): slightly reduced

COc1ccc(N(C(=O)Oc2c(C)cccc2C)c2ccnc(Nc3ccc(N4CCN(C)CC4)cc3)n2)c(OC)c1 [WH-4-023]
morphological appearance of naïve hESCs on individual addition to PXGGY/A (H9 hESCs): did not result in a major improvement

Oc1nc(-c2ccc(C(F)(F)F)cc2)nc2c1CSCC2 [XAV939]
colony size and OCT4-ΔPE-GFP signal compared to inhibition of MEK1 [4]: larger colonies but a slightly dimmer OCT4-ΔPE-GFP signal | increase in GFP activity (OCT4-ΔPE-GFP) ([4]; validation assays, absence of 2i): particularly strong effect

C[C@@H](N)[C@H]1CC[C@H](C(=O)Nc2ccncc2)CC1 [Y-27632]
CD75+/SUSD2+ cell proportion (H9 primed hESCs; transient application of 10 μM in PXGGY/A, P1): without any significant reduction | morphology of reprogrammed naïve hESCs (H9 hESCs; transient application (24 hours at passaging) of 10 μM in PXGGY/A): improves the morphology

LIF: leukemia inhibitory factor, recombinant human cytokine
morphological appearance of naïve hESCs on individual addition to PXGGY/A (H9 hESCs): did not result in a major improvement
